What was measured:
[1] = system: duck salad; test: Test B flood test duck salad; type: in vivo, Heteranthera limosa
How it was run: (§1)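 Flood test on plants grown to the 2-leaf stage; treated plants kept in greenhouse twelve to sixteen days, then visually rated against controls on a 0 (no effect) to 10 (complete control) scale.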

[2] = system: pigweed; test: Test B pre/postemergence pigweed; type: in vivo, Amaranthus retroflexus
How it was run: (§2)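 Herbicidal effect was estimated by eye on a ten-point control scale after plants spent twelve to sixteen days in a greenhouse following soil or foliar treatment. Foliar sprays targeted plants at one to four leaves; all doses were formulated in a non-phytotoxic solvent with surfactant.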

[3] = system: velvetleaf; test: Test B pre/postemergence velvetleaf; type: in vivo, Abutilon theophrasti; details: for Plant response rating, Velvetleaf: Rate 250 g/ha
How it was run: as §2

[4] = system: blackgrass; test: Test B pre/postemergence blackgrass; type: in vivo, Alopecurus myosuroides
How it was run: as §2

[5] = system: purple nutsedge; test: Test B pre/postemergence purple nutsedge; type: in vivo, Cyperus rotundus
How it was run: as §2

[6] = system: surinam grass; test: Test B pre/postemergence surinam grass; type: in vivo, Brachiaria decumbens
How it was run: as §2

[7] = system: rape; test: Test B pre/postemergence rape; type: in vivo, Brassica napus
How it was run: as §2

[8] = system: corn; test: Test B pre/postemergence corn; type: in vivo, Zea mays
How it was run: as §2

[9] = system: morningglory; test: Test B pre/postemergence morningglory; type: in vivo, Ipomoea hederacea
How it was run: as §2

[10] = system: rice; test: Test B flood test rice; type: in vivo, Oryza sativa
How it was run: as §1

[11] = system: bamyardgrass; test: Test B flood test barnyardgrass; type: in vivo, Echinochloa crus-galli
How it was run: as §1

[12] = system: smallflower flatsedge; test: Test B flood test smallflower flatsedge; type: in vivo, Cyperus difformis
How it was run: as §1

[13] = system: giant foxtail; test: Test B pre/postemergence giant foxtail; type: in vivo, Setaria faberii
How it was run: as §2

[14] = system: sugar beet; test: Test B pre/postemergence sugar beet; type: in vivo, Beta vulgaris; details: for Plant response rating, Sugarbeets: Rate 250 g/ha
How it was run: as §2

[15] = system: soybean; test: Test B pre/postemergence soybean; type: in vivo, Glycine max
How it was run: as §2

[16] = system: bedstraw; test: Test B pre/postemergence bedstraw; type: in vivo, Galium aparine
How it was run: as §2

[17] = Postemergence (flood test species), Rate 125 g/ha, scale of 0 to 10 where 0 is no effect and 10 is complete control
[18] = Rate 62 g/ha, Postemergence section, flood test species, scale of 0 to 10 where 0 is no effect and 10 is complete control
[19] = Rate 500 g/ha, listed under Postemergence (flood test species), scale 0 to 10, 0 no effect, 10 complete control
[20] = flood test, listed under Postemergence, Rate 250 g/ha, scale 0 to 10, 0 no effect, 10 complete control
[21] = Postemergence, Rate 125 g/ha, scale of 0 to 10 where 0 is no effect and 10 is complete control
[22] = Preemergence, Rate 62 g/ha, scale 0 to 10 (0 no effect, 10 complete control)
[23] = Preemergence, Rate 125 g/ha, scale 0 to 10 (0 no effect, 10 complete control)
[24] = Preemergence, Rate 250 g/ha, scale of 0 to 10 where 0 is no effect and 10 is complete control
[25] = Rate 62 g/ha, Postemergence, scale of 0 to 10 where 0 is no effect and 10 is complete control
[26] = Rate 250 g/ha, Postemergence, scale 0 to 10, 0 is no effect, 10 is complete control
[27] = Rate 500 g/ha, Postemergence, scale 0 to 10, 0 no effect, 10 complete control
[28] = Preemergence, Rate 125 g/ha, 0 is no effect, 10 is complete control
[29] = Preemergence, scale of 0 to 10 where 0 is no effect and 10 is complete control
[30] = Postemergence, scale 0 to 10, 0 is no effect, 10 is complete control
[31] = Postemergence, Rate 250 g/ha, scale 0 to 10, 0 no effect, 10 complete control
[32] = Postemergence, Rate 62 g/ha, scale 0 to 10, 0 is no effect, 10 is complete control
[33] = Rate 125 g/ha, Postemergence, scale 0 to 10, 0 no effect, 10 complete control
[34] = Rate 250 g/ha, Postemergence (flood test), scale 0 to 10, 0 is no effect, 10 is complete control

CCc1noc(CC)c1-n1c(=O)on(C(=O)N(c2ccc(F)cc2)C(C)C)c1=O [Compound 102]
Ducksalad plant response rating [1, 17]: 0 | Ducksalad plant response rating [1, 18]: 0 | Ducksalad plant response rating [1, 19]: 0 | Ducksalad plant response rating [1, 20]: 0 | Redroot pigweed plant response rating [2, 21]: 0 | Redroot pigweed plant response rating [2, 22]: 0 | Plant response rating, Redroot pigweed [2, 23]: 0 | Plant response rating, Redroot pigweed [2, 24]: 0 | Redroot pigweed plant response rating [2, 25]: 0 | Plant response rating, Redroot pigweed [2, 26]: 0 | Redroot pigweed plant response rating [2, 27]: 0 | Velvetleaf plant response rating [3, 21]: 0 | Velvetleaf plant response rating [3, 22]: 0 | Velvetleaf plant response rating (0 to 10 scale) [3, 28]: 0 | Plant response rating, Velvetleaf [3, 29]: 0 | Velvetleaf plant response rating [3, 25]: 0 | Plant response rating, Velvetleaf [3, 30]: 0 | Velvetleaf plant response rating [3, 27]: 3 | Blackgrass plant response rating [4, 21]: 0 | Blackgrass plant response rating [4, 31]: 0 | Blackgrass plant response rating [4, 22]: 0 | Plant response rating, Blackgrass [4, 23]: 0 | Plant response rating, Blackgrass [4, 24]: 2 | Blackgrass plant response rating [4, 25]: 0 | Blackgrass plant response rating [4, 27]: 0 | Nutsedge plant response rating [5, 21]: 0 | Nutsedge plant response rating [5, 31]: 0 | Nutsedge plant response rating [5, 22]: 0 | Plant response rating, Nutsedge [5, 23]: 0 | Plant response rating, Nutsedge [5, 24]: 0 | Nutsedge plant response rating [5, 25]: 0 | Nutsedge plant response rating [5, 27]: 0 | B. signalgrass plant response rating [6, 32]: 0 | B. signalgrass plant response rating [6, 31]: 0 | B. signalgrass plant response rating [6, 22]: 0 | Plant response rating, B. signalgrass [6, 23]: 0 | Plant response rating, B. signalgrass [6, 24]: 0 | B. signalgrass plant response rating [6, 33]: 0 | B. signalgrass plant response rating ([6]; Rate 500 g/ha, Postemergence, scale of 0 to 10 where 0 is no effect and 10 is complete control): 0 | Rape plant response rating [7, 21]: 0 | Rape plant response rating [7, 31]: 0 | Rape plant response rating [7, 22]: 0 | Plant response rating, Rape [7, 23]: 0 | Plant response rating, Rape [7, 24]: 0 | Rape plant response rating [7, 25]: 0 | Rape plant response rating [7, 27]: 0 | Corn plant response rating [8, 21]: 0 | Corn plant response rating [8, 31]: 0 | Corn plant response rating [8, 22]: 0 | Plant response rating, Corn [8, 23]: 0 | Plant response rating, Corn [8, 24]: 0 | Corn plant response rating [8, 25]: 0 | Corn plant response rating [8, 27]: 2 | Morningglory plant response rating [9, 21]: 0 | Morningglory plant response rating [9, 31]: 1 | Morningglory plant response rating [9, 22]: 0 | Plant response rating, Morningglory [9, 23]: 0 | Plant response rating, Morningglory [9, 24]: 0 | Morningglory plant response rating [9, 25]: 0 | Morningglory plant response rating [9, 27]: 3 | Rice plant response rating [10, 17]: 0 | Rice plant response rating [10, 18]: 0 | Plant response rating, Rice [10, 34]: 0 | Rice plant response rating [10, 19]: 0 | Barnyardgrass plant response rating [11, 32]: 0 | Barnyardgrass plant response rating ([11]; Rate 125 g/ha, Postemergence section (flood test species), scale 0 to 10, 0 no effect, 10 complete control): 0 | Barnyardgrass plant response rating [11, 19]: 0 | Barnyardgrass plant response rating [11, 20]: 0 | S. Flatsedge plant response rating [12, 17]: 0 | S. Flatsedge plant response rating [12, 18]: 0 | Plant response rating, S. Flatsedge [12, 34]: 0 | S. Flatsedge plant response rating [12, 19]: 0 | Giant foxtail plant response rating [13, 21]: 0 | Giant foxtail plant response rating [13, 31]: 0 | Giant foxtail plant response rating [13, 22]: 2 | Plant response rating, Giant foxtail [13, 23]: 4 | Plant response rating, Giant foxtail [13, 24]: 9 | Giant foxtail plant response rating [13, 25]: 0 | Giant foxtail plant response rating [13, 27]: 2 | Sugarbeets plant response rating [14, 21]: 0 | Sugarbeets plant response rating [14, 22]: 0 | Sugarbeets plant response rating (0 to 10 scale) [14, 28]: 0 | Plant response rating, Sugarbeets [14, 29]: 0 | Sugarbeets plant response rating [14, 25]: 0 | Plant response rating, Sugarbeets [14, 30]: 0 | Sugarbeets plant response rating [14, 27]: 0 | Soybean plant response rating [15, 21]: 0 | Soybean plant response rating [15, 22]: 0 | Plant response rating, Soybean [15, 23]: 0 | Plant response rating, Soybean [15, 24]: 0 | Soybean plant response rating [15, 25]: 0 | Plant response rating, Soybean [15, 26]: 0 | Soybean plant response rating [15, 27]: 0 | Bedstraw plant response rating [16, 32]: 0 | Bedstraw plant response rating [16, 31]: 0 | Bedstraw plant response rating [16, 22]: 0 | Plant response rating, Bedstraw [16, 23]: 0 | Plant response rating, Bedstraw [16, 24]: 0 | Bedstraw plant response rating [16, 33]: 0 | Bedstraw plant response rating [16, 27]: 3

Source: patent US6737383B1, “Herbicidal oxadiazolidines” (priority 1999, dated 2004)
